According to patent US20100093861A1, “TREATMENT OF INSULIN RESISTANCE OR DISEASES ASSOCIATED WITH INSULIN RESISTANCE” (Stevia ApS, priority 2006, published 2010):

Tests used:
Nkx2-2 = test: Affymetrix gene chip analysis of KKAy islets: Nkx2-2; assay type: in vivo, mice; details: ISV vs. KKAy control islets, 9 weeks
Protocol: (§1) cRNA preparation and in vitro transcription: In total 6 Affymetrix arrays MOE430 2.0 probe array cartridge were used i.e. for analysis of 3 replicas for the KKAy control group and the ISV group, respectively. Each of the 6 samples consisted of pooled RNA from 3-4 KKAy mice. Preparation of target for hybridization was prepared from 340 ng of total RNA using MessageAmp™ II aRNA Amplification Kits (Ambion), according to the manufacturers instructions. Arrays were hybridised and scanned as described elsewhere (Kruhoffer et al., 2005).

Foxa2 = test: Affymetrix gene chip analysis of KKAy islets: Foxa2; assay type: in vivo, mice; details: ISV vs. KKAy control islets, 9 weeks
Protocol: as §1

KKAy-mice = test: In vivo study of plasma insulin, glucose, triglycerides and body weight in KKAy-mice after isosteviol (Example 3)
Protocol: Twenty six male KKAy-mice (Clea Japan, Tokyo, Japan), all 5 week-old, weighing 22-25 g were randomized to 2 groups and treated for 9 weeks with; • A: standard chow diet (control); • B: standard chow diet+20 mg/kg BW of Isosteviol (hereinafter ISV).
The composition of the standard chow diet dry matter was: Protein 24%, carbohydrate 71%, and Lipids 5%. ISV (ent-16-ketobeyeran-19-oic acid; Wako Pure Chemical Industries, Osaka, Japan) was incorporated in the mice food pellet and administered orally.
Hormones and lipids were measured from blood sample at start and end of the treatment period. Blood sample was taken from the tail of the animals on chilled tubes containing heparin/aprotinin and centrifuged (4000 g, 60 seconds, […]), and plasma was frozen for subsequent analysis of insulin, glucose and triglycerides. Fasting blood glucose, as well as BW, was measured before and after intervention.
Plasma blood glucose was determined using the glucose oxidase method (GOD-PAP,
Boehringer Mannheim, GmbH Germany). Insulin was determined by radioimmunoassay with a guinea pig antiporcine insulin antibody (PNILGP4, Novo Nordisk, Bagsvaerd, Denmark), and mono-[125I]-(Tyr A14) labelled human insulin (Novo Nordisk) as tracer and rat insulin (Novo Nordisk) as standard. We separated free and bound radioactivity using ethanol (Heding, 1972). Interassay and intra-assay variation was below 10%. […] Triglycerides was determined using colorimetric kits (Roche Diagnostics, Boehringer Mannheim, GmbH Germany). The fasting glucose-insulin index was calculated as the product of plasma insulin and plasma glucose ([plasma insulin ng/ml]×[plasma glucose mmol/l]/1000) and compared between groups as relative units (Chang et al., 2005).

Ins1 = test: Relative real time RT-PCR in islets of KKAy mice (Example 3): Ins1; assay type: in vivo; details: 9 weeks
Protocol: Islets were isolated by the collagenase digestion technique. In brief, the animals were anesthetized with pentobarbital (50 mg/kg intraperitoneally) and midline laparotomy was performed. The pancreas was retrogradely filled with 3 mL ice-cold Hanks balanced salt solution (([HBSS] Sigma Chemical, St Louis, Mo.) supplemented with 0.3 mg/ml collagenase Boehringer Mannheim GmbH, Germany). The pancreas was subsequently removed and incubated for 19 minutes at 37° C. After rinsing in HBSS, the islets were handpicked under a stereomicroscope and immediately transferred to a tubes containing 1 ml Trizol (Gibco/Invitrogene, Calsbad, Calif., USA). The islets isolated from the NMRI mice were incubated overnight at 37° C. and 95% normal atmosphere/5% CO2 in 10 ml RPMI 1640 containing 11.1 mmol/L glucose supplemented with penicillin G and 100 μg/mL streptomycin (all Gibco/Invitrogene, Calsbad, Calif., USA).
For each group, islets from 3-4 mice (180-200 islets) were pooled in 1 ml Trizol reagent (Gibco/lnvitrogene, Calsbad, Calif., USA) before RNA purification. Total RNA was extracted according to the manufactures' instructions. RNA was quantified by measuring absorbance at 260 and 280 nm. The quality of the RNA was checked by the Agilent 2100 bioanalyzer (Agilent, Santa Clara, USA). […]

Pax6 = test: Affymetrix gene chip analysis of KKAy islets: Pax6; assay type: in vivo, mice; details: ISV vs. KKAy control islets, 9 weeks
Protocol: as §1

[1] = ISV group of KKAy mice, age 5 weeks, before treatment
[2] = KKAy mice, 20 mg/kg BW in diet, after 9-week treatment

C[C@@]12CC[C@@H]3[C@@](CC[C@H]4[C@@]3(C)CCC[C@@]4(C)C(=O)O)(CC1=O)C2 (single isomer, unassigned; ent-16) [ISV, ent-16-ketobeyeran-19-oic acid]
array: increased expression in Nkx2-2 (Nkx2-2): 2.3 fold
array: increased expression in Foxa2 (Foxa2): 1.9 fold
reduction of plasma insulin increase compared to the KKAy control (KKAy-mice; 9 weeks treatment): 62%
reduction of the plasma TG increase in the KKAy (KKAy-mice; 9 weeks treatment): 74%
glucose-insulin index at start of study (KKAy-mice; ISV group of KKAy mice before treatment, product of plasma insulin and plasma glucose): 8.6 unit
plasma glucose at start of study (KKAy-mice; [1]): 8.9 mmol/L
plasma insulin at start of study (KKAy-mice; [1]): 1.0 ng/mL
plasma TG level at age 5 week (KKAy-mice; ISV group of KKAy mice, before treatment): 1.25 mmol/L
reduction in plasma glucose compared to the increase for the KKAy (KKAy-mice; KKAy at 5 weeks as baseline, 9 weeks treatment): 59%
plasma TG level at age 14 weeks (KKAy-mice; KKAy mice after 9 weeks treatment): 2.02 mmol/L
glucose-insulin index at the end of the study (KKAy-mice; KKAy mice after 9 weeks treatment, product of plasma insulin and plasma glucose): 1596 unit
plasma glucose at the end of the study (KKAy-mice; [2]): 16.2 mmol/L
plasma insulin at the end of the study (KKAy-mice; [2]): 80.9 ng/mL
fold increase of plasma glucose during study period (KKAy-mice; KKAy mice, 20 mg/kg BW, 9 weeks, KKAy control 2.8 fold): 1.8 fold
fold increase of plasma insulin during study period (KKAy-mice; KKAy mice, 20 mg/kg BW, 9 weeks, KKAy control 266 fold): 81 fold
increase of TG level at age 14 weeks compared to age 5 week (KKAy-mice; KKAy mice, 9 weeks treatment, KKAy control 192%): 62%
reduction in weight at the end of the 9 week treatment period (KKAy-mice; KKAy mice, vs. KKAy control): 13%
body weight after 5 weeks (KKAy-mice; KKAy mice, KKAy control 38.6 g): 29.9 g
body weight after 9 weeks treatment (KKAy-mice; KKAy mice, KKAy control 41.6 g): 36.3 g
increase in Ins1 expression (Ins1; RT-PCR): more than 2 fold
increased expression of Ins1, ISV group vs. control group (Ins1; normalized to 18S rRNA): 132%
array: increased expression in Pax6 (Pax6): 1.9 fold
